{"source": "ChEMBL document CHEMBL4334516", "about": "“Kinase Chemodiversity from the Arctic: The Breitfussins” (J Med Chem, 2019)", "key": {"[1]": {"molecular_target": "BMP-2-inducible protein kinase (Homo sapiens, UniProt Q9NSY1)", "experiment": "Binding affinity to wild-type human partial length BIKE (S34 to N329 residues) expressed in bacterial expression system by active-site directed competition binding assay based Kinomescan method"}, "[2]": {"experiment": "Stability in mouse plasma assessed as parent compound remaining level at 5 uM incubated for 1 hr by LC-MS analysis", "assay_type": "ADME, cell-free", "conditions": "read-out: Stability"}, "[3]": {"experiment": "Toxicity in zebrafish embryos assessed as induction of general edema by measuring unaffected embryos level at 0.1 uM after 72 hrs (reference value: 100%)", "parameters": "species or system Danio rerio", "conditions": "in vivo"}, "[4]": {"molecular_target": "Non-receptor tyrosine-protein kinase TYK2 (Homo sapiens, UniProt P29597)", "experiment": "Binding affinity to wild-type human partial length TYK2 JH2 domain-pseudokinase expressed in mammalian expression system by active-site directed competition binding assay based Kinomescan method"}, "[5]": {"experiment": "Toxicity in zebrafish embryos assessed as induction of heart edema by measuring unaffected embryos level at 1.4 uM after 72 hrs (reference value: 100%)", "assay_type": "tissue-based, Danio rerio", "conditions": "in vivo"}, "[6]": {"experiment": "Kinetic solubility in pH 7.4 aqueous buffer at 500 uM by spectrophotometry", "assay_type": "physicochemical", "conditions": "read-out: Kinetic_solubility"}, "MDA-MB-231": {"system": "MDA-MB-231", "experiment": "Cytotoxicity in human MDA-MB-231 cells assessed as reduction in cell viability incubated for 72 hrs by SRB assay", "conditions": "MDA-MB-231, 72 h"}, "[7]": {"molecular_target": "T1, Mitogen-activated protein kinase kinase kinase 11 (Homo sapiens, UniProt Q16584)", "experiment": "Binding affinity to wild-type human partial length MLK3 (I77 to W399 residues) expressed in bacterial expression system assessed as residual binding level at 10 uM by active-site directed competition binding assay based Kinomescan method relative to control"}, "[8]": {"experiment": "Toxicity in zebrafish embryos assessed as survival at 1396 uM after 72 hrs (reference value: 95%)", "parameters": "species or system Danio rerio", "conditions": "in vivo"}, "[9]": {"molecular_target": "Dual specificity tyrosine-phosphorylation-regulated kinase 1A (Homo sapiens, UniProt Q13627)", "experiment": "Binding affinity to wild-type human partial length DYRK1A (H129 to S509 residues) expressed in mammalian expression system assessed as residual binding level at 10 uM by active-site directed competition binding assay based Kinomescan method relative to control"}, "[10]": {"experiment": "Unbound fraction in mouse plasma at 5 uM incubated for 6 hrs at 37 degC by LC-MS analysis based equilibrium dialysis", "assay_type": "ADME, cell-free"}, "[11]": {"molecular_target": "3',5'-cyclic-AMP phosphodiesterase 4D (Homo sapiens) (UniProt Q08499)", "experiment": "Inhibition of human recombinant phosphodiesterase type 4D2 using [3H]cAMP and cAMP incubated for 20 mins by scintillation counting method"}, "[12]": {"experiment": "Toxicity in zebrafish embryos assessed as induction of scoliosis by measuring unaffected embryos level at 14 uM after 72 hrs (reference value: 100%)", "parameters": "species or system Danio rerio", "conditions": "in vivo"}, "[13]": {"molecular_target": "Aurora kinase A (Homo sapiens) (UniProt O14965)", "experiment": "Binding affinity to wild-type human partial length AURKA (E122 to K401 residues) expressed in mammalian expression system assessed as residual binding level at 10 uM by active-site directed competition binding assay based Kinomescan method relative to control"}, "[14]": {"experiment": "Toxicity in zebrafish embryos assessed as induction of necrosis by measuring unaffected embryos level at 14 uM after 72 hrs (reference value: 100%)", "parameters": "species or system Danio rerio", "conditions": "in vivo"}, "HT-29": {"system": "HT-29", "experiment": "Cytotoxicity in human HT-29 cells assessed as reduction in cell viability by MTS assay", "assay_type": "functional, cell-based", "conditions": "TDE = time-dependent effect"}, "[15]": {"molecular_target": "Serine/threonine-protein kinase pim-2 (Homo sapiens, UniProt Q9P1W9)", "experiment": "Binding affinity to wild-type human partial length PIM2 (M1 to E291 residues) expressed in bacterial expression system assessed as residual binding level at 10 uM by active-site directed competition binding assay based Kinomescan method"}, "[16]": {"molecular_target": "Myosin light chain kinase family member 4 (Homo sapiens, UniProt Q86YV6)", "experiment": "Binding affinity to wild-type human partial length MYLK4 (V79 to S380 residues) expressed in bacterial expression system by active-site directed competition binding assay based Kinomescan method"}, "[17]": {"molecular_target": "Citron Rho-interacting kinase (Homo sapiens, UniProt O14578)", "experiment": "Binding affinity to wild-type human partial length CIT (M68 to E432 residues) expressed in bacterial expression system by active-site directed competition binding assay based Kinomescan method"}, "[18]": {"molecular_target": "Myosin light chain kinase family member 4 (Homo sapiens) (UniProt Q86YV6)", "experiment": "Binding affinity to wild-type human partial length MYLK4 (V79 to S380 residues) expressed in bacterial expression system assessed as residual binding level at 10 uM by active-site directed competition binding assay based Kinomescan method relative to control"}, "[19]": {"experiment": "Stability in human liver microsomes supplemented with UDP-glucuronic acid assessed as parent compound remaining level at 5 uM incubated for 1 hr by LC-MS analysis", "assay_type": "ADME, Microsome", "conditions": "read-out: Stability"}, "[20]": {"experiment": "Toxicity in zebrafish embryos assessed as induction of scoliosis by measuring unaffected embryos level at 0.1 uM after 72 hrs (reference value: 100%)", "parameters": "species or system Danio rerio", "conditions": "in vivo"}, "[21]": {"molecular_target": "T2, Serine/threonine-protein kinase pim-1 (Homo sapiens, UniProt P11309)", "experiment": "Inhibition of PIM1 (unknown origin) assessed as residual enzyme activity at 1 uM by [33P]-ATP filter binding kinase assay relative to control"}, "[22]": {"experiment": "Toxicity in zebrafish embryos assessed as induction of necrosis by measuring unaffected embryos level at 0.1 uM after 72 hrs (reference value: 100%)", "parameters": "species or system Danio rerio", "conditions": "in vivo"}, "[23]": {"experiment": "Intrinsic clearance in mouse liver microsomes at 3 uM measured up to 50 mins by LC-MS analysis", "assay_type": "ADME, Microsome", "conditions": "read-out: CLH"}, "[24]": {"molecular_target": "Serine/threonine-protein kinase 17A (Homo sapiens) (UniProt Q9UEE5)", "experiment": "Binding affinity to wild-type human partial length DRAK1 (R32 to E363 residues) expressed in bacterial expression system assessed as residual binding level at 10 uM by active-site directed competition binding assay based Kinomescan method relative to control"}, "Aurora kinase B [25]": {"molecular_target": "T3, Aurora kinase B (Homo sapiens, UniProt Q96GD4)", "experiment": "Inhibition of Aurora B (unknown origin) assessed as residual enzyme activity at 50 uM by [33P]-ATP filter binding kinase assay relative to control"}, "[26]": {"experiment": "Toxicity in zebrafish embryos assessed as induction of general edema by measuring unaffected embryos level at 1.4 uM after 72 hrs (reference value: 100%)", "parameters": "species or system Danio rerio", "conditions": "in vivo"}, "Aurora kinase B [27]": {"molecular_target": "T3, Aurora kinase B", "experiment": "Inhibition of Aurora B (unknown origin) assessed as residual enzyme activity at 1 uM by [33P]-ATP filter binding kinase assay relative to control"}, "[28]": {"molecular_target": "T2, Serine/threonine-protein kinase pim-1", "experiment": "Binding affinity to wild-type human partial length PIM1 (A15 to K313 residues) expressed in bacterial expression system assessed as residual binding level at 10 uM by active-site directed competition binding assay based Kinomescan method relative to control"}, "[29]": {"molecular_target": "T1, Mitogen-activated protein kinase kinase kinase 11", "experiment": "Inhibition of MLK3 (unknown origin) assessed as residual enzyme activity at 5 uM by [33P]-ATP filter binding kinase assay relative to control"}}, "note": "Calls of active or inactive are those of the source. The rule behind the calls is not given here.", "data": [{"smiles": "COc1cc2c(-c3cnc(-c4ccc[nH]4)o3)c[nH]c2cc1Br", "values": [{"measurement": "Kd", "setting": "[1]", "value": 1100, "unit": "nM"}, {"measurement": "remaining at 1 h, 5 µM", "setting": "[2]", "value": 84, "unit": "%"}, {"measurement": "Activity", "setting": "[3]", "value": 100, "unit": "%"}, {"measurement": "Kd", "setting": "[4]", "value": 1800, "unit": "nM"}, {"measurement": "Activity", "setting": "[5]", "value": 100, "unit": "%"}, {"measurement": "solubility kinetic at 500 µM", "setting": "[6]", "value": 156, "unit": "µM"}, {"measurement": "IC50", "setting": "MDA-MB-231", "value": "> 30000", "unit": "nM"}, {"measurement": "Activity", "setting": "[7]", "value": 56, "unit": "%"}, {"measurement": "survival at 72 h, 1396 µM", "setting": "[8]", "value": 0, "unit": "%"}, {"measurement": "Activity", "setting": "[9]", "value": 75, "unit": "%"}, {"measurement": "Fu", "setting": "[10]", "value": 0.3, "unit": "%"}, {"measurement": "inhibition", "setting": "[11]", "value": "Active"}, {"measurement": "Activity", "setting": "[12]", "value": 0, "unit": "%"}, {"measurement": "Activity", "setting": "[13]", "value": 80, "unit": "%"}, {"measurement": "Activity", "setting": "[14]", "value": 0, "unit": "%"}, {"measurement": "Activity", "setting": "HT-29", "value": "Tde"}, {"measurement": "Activity", "setting": "[15]", "value": 54, "unit": "%"}, {"measurement": "Kd", "setting": "[16]", "value": 430, "unit": "nM"}, {"measurement": "Kd", "setting": "[17]", "value": 2700, "unit": "nM"}, {"measurement": "Activity", "setting": "[18]", "value": 0.25, "unit": "%"}, {"measurement": "remaining at 1 h, 5 µM", "setting": "[19]", "value": 92, "unit": "%"}, {"measurement": "Activity", "setting": "[20]", "value": 95, "unit": "%"}, {"measurement": "Activity", "setting": "[21]", "value": 6, "unit": "%"}, {"measurement": "Activity", "setting": "[22]", "value": 100, "unit": "%"}, {"measurement": "microsomal CLint at 3 µM", "setting": "[23]", "value": 47, "unit": "µL/min/mg"}, {"measurement": "Activity", "setting": "[24]", "value": 2.9, "unit": "%"}, {"measurement": "Activity", "setting": "Aurora kinase B [25]", "value": 6, "unit": "%"}, {"measurement": "Activity", "setting": "[26]", "value": 100, "unit": "%"}, {"measurement": "Activity", "setting": "Aurora kinase B [27]", "value": 33, "unit": "%"}, {"measurement": "Activity", "setting": "[28]", "value": 9.5, "unit": "%"}]}, {"smiles": "COc1cc(Br)cc2[nH]cc(-c3cnc(-c4ccc[nH]4)o3)c12", "values": [{"measurement": "Activity", "setting": "[29]", "value": 7, "unit": "%"}]}]}
